Test results reported in patent EP4800015A1, “AZABICYCLO DERIVATIVE AND PREPARATION METHOD THEREFOR, AND USE” (Zhejiang Hisun Pharmaceutical Co., Ltd., priority 2023, dated 2025).

How the values were obtained:
SW48 cells = assay: Inhibition of SW48 cell proliferation (CellTiter-Glo); type: cell-based; details: Homo sapiens; SW48 cells (MSI-H), 120 hours
Description: (§1) The following method was used to determine the effect of the compounds of the present disclosure on SW48 cell proliferation. SW48 cells (MSI-H cells) were purchased from American ATCC cell bank and cultured in Leibovitz's L-15 medium (Gibco, catalog No. 11415064) containing 10% fetal bovine serum, 100 U penicillin, and 100 µg/mL streptomycin. Cell viability was determined by CellTiter-Glo® Luminescent Cell Viability Assay kit (Promega, catalog No. G7573).
(§2) The experiment was performed according to the steps of the kit manual, which is briefly described as follows: test compounds were first dissolved in DMSO to prepare 10 mM stock solutions, and then diluted with medium to prepare test samples, with final compound concentrations ranging from 10000 nM to 1.52 nM. Cells in logarithmic growth phase were seeded into 96-well cell culture plates at a density of 500 cells per well and cultured overnight at 37 °C in an air incubator, then test compounds were added and cultivation continued for 120 hours. After the cultivation was completed, 40 µL of CellTiter-Glo detection reagent was added to each well, shaken for 5 minutes, and then left to stand for 10 minutes. Luminescence values of each well were read on a microplate reader using Luminescence mode. The percentage inhibition at each concentration point was calculated by comparison with the control group (0.1% DMSO), and then IC50 values for the compounds for inhibition of cell proliferation were obtained using nonlinear regression analysis of compound concentration logarithm versus inhibition rate in GraphPad Prism 9 software, as shown in Table 2.
The IC50 value results of the compounds of the present disclosure are represented by A, wherein "A" indicates 1 nM < IC50 ≤ 100 nM. Table 2 IC50 data for inhibition of SW48 cell proliferation by the compounds of the present disclosure

recombinant human WRN = target: T1, recombinant human WRN (Homo sapiens, UniProt Q14191); assay: Inhibition of WRN enzyme activity (ATPase), ADP-Glo Kinase Assay; type: biochemical; details: WRN protein 5 nM, Flap 0.1 nM, ATP 30 µM; read-out: IC50
T1 construct: purchased BPS 101264
Procedure, shortened: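 Recombinant human WRN (5 nM) was preincubated with compound (1000–0.004 nM) for 15 min at room temperature. Flap26 5'-flap DNA (0.1 nM) and 30 µM ATP were then added for 10 min in Tris pH 7.5, MgCl2, NaCl, BSA, Pluronic buffer. ADP was detected by ADP-Glo luminescence, and IC50 was obtained by nonlinear regression versus a 0.1% DMSO control.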

RL95-2 cells = assay: Inhibition of RL95-2 cell proliferation (CellTiter-Glo); type: cell-based; details: Homo sapiens; RL95-2 cells (MSI-H), 120 hours
Description: as §1, with “RL95-2” for “SW48”, “Cell Resource Center of Shanghai Institutes for Biological Sciences, Chinese Academy of Sciences,” for “American ATCC cell bank”, “DMEM/F12” for “Leibovitz's L-15”, “A4192001)” for “11415064)”
as §2, with “a 5% CO2” for “an air”, “incubator, and” for “incubator,”, “50” for “40”, “3.” for “2.”
The IC50 value results of the compounds of the present disclosure are represented by A, wherein "A" indicates 1 nM < IC50 ≤ 100 nM. Table 3 IC50 data for inhibition of RL95-2 cell proliferation by the compounds of the present disclosure

T1 sequence (Q14191 whole entry): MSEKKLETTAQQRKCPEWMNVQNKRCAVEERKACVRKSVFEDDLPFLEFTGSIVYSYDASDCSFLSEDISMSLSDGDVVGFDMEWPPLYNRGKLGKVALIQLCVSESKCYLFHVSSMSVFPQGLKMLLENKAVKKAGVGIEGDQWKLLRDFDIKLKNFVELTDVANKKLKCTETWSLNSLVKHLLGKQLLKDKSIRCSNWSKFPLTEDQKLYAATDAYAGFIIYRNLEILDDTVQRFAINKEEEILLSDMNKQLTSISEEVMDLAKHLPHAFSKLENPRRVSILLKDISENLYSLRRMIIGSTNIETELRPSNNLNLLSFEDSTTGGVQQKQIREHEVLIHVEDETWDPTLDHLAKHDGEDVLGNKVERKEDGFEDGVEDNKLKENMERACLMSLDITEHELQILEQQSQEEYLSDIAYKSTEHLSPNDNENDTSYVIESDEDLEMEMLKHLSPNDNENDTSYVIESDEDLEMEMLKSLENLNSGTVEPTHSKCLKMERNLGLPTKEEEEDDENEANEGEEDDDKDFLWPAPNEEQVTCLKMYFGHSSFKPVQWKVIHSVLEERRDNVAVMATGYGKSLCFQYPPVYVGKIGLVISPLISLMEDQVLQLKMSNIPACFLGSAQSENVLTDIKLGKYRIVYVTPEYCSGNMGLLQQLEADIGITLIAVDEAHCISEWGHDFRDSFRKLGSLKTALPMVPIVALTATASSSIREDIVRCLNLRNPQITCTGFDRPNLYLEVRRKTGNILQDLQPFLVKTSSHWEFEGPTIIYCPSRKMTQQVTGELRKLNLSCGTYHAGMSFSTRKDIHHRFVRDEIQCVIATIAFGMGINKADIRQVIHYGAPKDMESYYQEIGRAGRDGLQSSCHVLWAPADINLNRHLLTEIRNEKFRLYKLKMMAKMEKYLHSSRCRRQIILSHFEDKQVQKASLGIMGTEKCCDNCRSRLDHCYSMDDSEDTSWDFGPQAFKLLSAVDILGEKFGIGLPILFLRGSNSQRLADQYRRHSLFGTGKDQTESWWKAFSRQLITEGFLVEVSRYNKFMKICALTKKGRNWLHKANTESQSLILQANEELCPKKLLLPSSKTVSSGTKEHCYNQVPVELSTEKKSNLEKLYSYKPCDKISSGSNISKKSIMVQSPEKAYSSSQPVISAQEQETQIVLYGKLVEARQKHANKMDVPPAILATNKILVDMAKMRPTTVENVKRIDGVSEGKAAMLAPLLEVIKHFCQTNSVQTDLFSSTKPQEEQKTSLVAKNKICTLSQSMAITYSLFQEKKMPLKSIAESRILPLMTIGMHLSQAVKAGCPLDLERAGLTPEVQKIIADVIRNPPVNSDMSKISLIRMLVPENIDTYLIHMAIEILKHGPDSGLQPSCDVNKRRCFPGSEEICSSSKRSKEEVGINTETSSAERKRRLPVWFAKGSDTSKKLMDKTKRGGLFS

| SMILES | IC50 (SW48 cells) | IC50 (recombinant human WRN) | IC50 (RL95-2 cells) |
| --- | --- | --- | --- |
| CCc1c(N2CCN(C(=O)c3ncnc(C)c3O)CC2)c(=O)n2nc(C3=CC4CC(=O)CC4C3)nc2n1CC(=O)Nc1ccc(C(F)(F)F)cc1Cl (stereo not shown) [Example 17, N-(2-chloro-4-(trifluoromethyl)phenyl)-2-(5-ethyl-6-(4-(5-hydroxy-6-methylpyrimidine-4-carbonyl)piperazin-1-yl)-7-oxo-2-(5-oxo-1,3a,4,5,6,6a-hexahydropentalen-2-yl)-[1,2,4]triazolo[1,5-a]pyrimidin-4(7H)-yl)acetamide] | 1 to 100 nM | 1 to 100 nM | 1 to 100 nM |
| CCc1c(N2CCN(C(=O)c3ncnc(C)c3O)CC2)c(=O)n2nc(C3=CC4CC4C3)nc2n1CC(=O)Nc1ccc(C(F)(F)F)cc1Cl (stereo not shown) [Example 18, 2-(2-(bicyclo[3.1.0]hex-2-en-3-yl)-5-ethyl-6-(4-(5-hydroxy-6-methylpyrimidine-4-carbonyl)piperazin-1-yl)-7-oxo-[1,2,4]triazolo[1,5-a]pyrimidin-4(7H)-yl)-N-(2-chloro-4-(trifluoromethyl)phenyl)acetamide] | 1 to 100 nM | 1 to 100 nM | 1 to 100 nM |
| CCc1c(N2CCN(C(=O)c3ncnc(C)c3O)CC2)c(=O)n2nc(-c3cc4ccccc4o3)nc2n1CC(=O)Nc1ccc(C(F)(F)F)cc1Cl [Example 19, 2-(2-(benzofuran-2-yl)-5-ethyl-6-(4-(5-hydroxy-6-methylpyrimidine-4-carbonyl)piperazin-1-yl)-7-oxo-[1,2,4]triazolo[1,5-a]pyrimidin-4(7H)-yl)-N-(2-chloro-4-(trifluoromethyl)phenyl)acetamide] | 1 to 100 nM | < 1 nM | 1 to 100 nM |
| CCc1c(N2CCN(C(=O)c3ncccc3O)CC2)c(=O)n2nc(C3=CC4CC(=O)CC4C3)nc2n1CC(=O)Nc1ccc(C(F)(F)F)cc1Cl (stereo not shown) [Example 22, N-(2-chloro-4-(trifluoromethyl)phenyl)-2-(5-ethyl-6-(4-(3-hydroxypicolinoyl)piperazin-1-yl)-7-oxo-2-(5-oxo-1,3a,4,5,6,6a-hexahydropentalen-2-yl)-[1,2,4]triazolo[1,5-a]pyrimidin-4(7H)-yl)acet amide] | 1 to 100 nM | 1 to 100 nM | 1 to 100 nM |
| CCc1c(N2CCN(C(=O)c3ncnc(C)c3O)CC2)c(=O)n2nc(C3=CCCCCC3)nc2n1CC(=O)Nc1ccc(C(F)(F)F)cc1C [Example 47, 2-(2-(cyclohept-1-en-1-yl)-5-ethyl-6-(4-(5-hydroxy-6-methylpyrimidine-4-carbonyl)piperazin-1-yl)-7-oxo-[1,2,4]triazolo[1,5-a]pyrimidin-4(7H)-yl)-N-(2-methyl-4-(trifluoromethyl)phenyl) acetamide] | 1 to 100 nM | 1 to 100 nM | 1 to 100 nM |
| CCc1c(N2CCN(C(=O)c3ncnc(C)c3O)CC2)c(=O)n2nc(C3=CCCCCC3)nc2n1CC(=O)Nc1ccc(C(F)(F)F)cc1F [Example 49, 2-(2-(cyclohept-1-en-1-yl)-5-ethyl-6-(4-(5-hydroxy-6-methylpyrimidine-4-carbonyl)piperazin-1-yl)-7-oxo-[1,2,4]triazolo[1,5-a]pyrimidin-4(7H)-yl)-N-(2-fluoro-4-(trifluoromethyl)phenyl)acetamide] | 1 to 100 nM | 1 to 100 nM | 1 to 100 nM |
| CCc1c(N2CCN(C(=O)c3ncnc(C)c3O)CC2)c(=O)n2nc(C=C3CCC3)nc2n1CC(=O)Nc1ccc(S(F)(F)(F)(F)F)cc1 [Example 53, 2-(2-(cyclobutylidenemethyl)-5-ethyl-6-(4-(5-hydroxy-6-methylpyrimidine-4-carbonyl)piperazin-1-yl)-7-oxo-[1,2,4]triazolo[1,5-a]pyrimidin-4(7H)-yl)-N-(4-(pentafluoro-λ^6-sulfaneyl)phenyl)ace tamide] | 1 to 100 nM | 1 to 100 nM | 1 to 100 nM |
| CCc1c(N2CCN(C(=O)c3ncnc(C)c3O)CC2)c(=O)n2nc(-c3ccc4sccc4c3)nc2n1CC(=O)Nc1ccc(C(F)(F)F)cc1Cl [Example 54, 2-(2-(benzo[b]thiophen-5-yl)-5-ethyl-6-(4-(5-hydroxy-6-methylpyrimidine-4-carbonyl)piperazin-1-yl)-7-oxo-[1,2,4]triazolo[1,5-a]pyrimidin-4(7H)-yl)-N-(2-chloro-4-(trifluoromethyl)phenyl)acet amide] | 1 to 100 nM | 1 to 100 nM | 1 to 100 nM |
| CCc1c(N2CCN(C(=O)c3ncnc(C)c3O)CC2)c(=O)n2nc(-c3ccc4ccsc4c3)nc2n1CC(=O)Nc1ccc(C(F)(F)F)cc1Cl [Example 55, 2-(2-(benzo[b]thiophen-6-yl)-5-ethyl-6-(4-(5-hydroxy-6-methylpyrimidine-4-carbonyl)piperazin-1-yl)-7-oxo-[1,2,4]triazolo[1,5-a]pyrimidin-4(7H)-yl)-N-(2-chloro-4-(trifluoromethyl)phenyl)acet amide] | 1 to 100 nM | 1 to 100 nM | 1 to 100 nM |
| CCc1c(N2CCN(C(=O)c3ncnc(C)c3O)CC2)c(=O)n2nc(C3=CCCCOC3)nc2n1CC(=O)Nc1ccc(S(F)(F)(F)(F)F)cc1Cl [Example 84, N-(2-chloro-4-(pentafluoro-λ^6-sulfaneyl)phenyl)-2-(5-ethyl-6-(4-(5-hydroxy-6-methylpyrimidine-4-carbonyl)piperazin-1-yl)-7-oxo-2-(2,5,6,7-tetrahydrooxepin-3-yl)-[1,2,4]triazolo[1,5-a]pyrimidin-4(7H)-yl)acetamide] | 1 to 100 nM | 1 to 100 nM | 1 to 100 nM |
| CCc1c(N2CCN(C(=O)c3ncnc(C)c3O)CC2)c(=O)n2nc(-c3ccc4occc4c3)nc2n1CC(=O)Nc1ccc(S(F)(F)(F)(F)F)cc1Cl [Example 85, 2-(2-(Benzofuran-5-yl)-5-ethyl-6-(4-(5-hydroxy-6-methylpyrimidine-4-carbonyl)piperazin-1-yl)-7-oxo-[1,2,4]triazolo[1,5-a]pyrimidin-4(7H)-yl)-N-(2-chloro-4-(pentafluoro-λ^6-sulfaneyl)phenyl) acetamide] | 1 to 100 nM | 1 to 100 nM | 1 to 100 nM |
| CCc1c(N2CCN(C(=O)c3ncnc(C)c3O)CC2)c(=O)n2nc(C3=CCC4(CC3)COC4)nc2n1CC(=O)Nc1ccc(S(F)(F)(F)(F)F)cc1Cl [Example 175, N-(2-chloro-4-(pentafluoro-λ6-sulfaneyl)phenyl)-2-(5-ethyl-6-(4-(5-hydroxy-6-methylpyrimidine-4-carbonyl)piperazin-1-yl)-7-oxo-2-(2-oxaspiro[3.5]non-6-en-7-yl)-[1,2,4]triazolo[1,5-a]pyrimidin-4(7H)-yl)acetamide] | 1 to 100 nM | 1 to 100 nM |  |
| CCc1c(N2CCN(C(=O)c3ncnc(C)c3O)CC2)c(=O)n2nc(C3=CCC4(CC3)COC4)nc2n1CC(=O)Nc1ccc(S(F)(F)(F)(F)F)cc1 [Example 176, 2-(5-ethyl-6-(4-(5-hydroxy-6-methylpyrimidine-4-carbonyl)piperazin-1-yl)-7-oxo-2-(2-oxaspiro[3.5]non-6-en-7-yl)-[1,2,4]triazolo[1,5-a]pyrimidin-4(7H)-yl)-N-(4-(pentafluoro-λ^6-sulfaneyl)phenyl)acetamide] | 1 to 100 nM | 1 to 100 nM |  |
